What was measured:
Test in all cases: relative viability (nuclei count vs DMSO), 5 days (fraction); higher = more cells survive
Trametinib + Linsitinib = compound: CC(=O)Nc1cccc(-n2c(=O)n(C3CC3)c(=O)c3c(Nc4ccc(I)cc4F)n(C)c(=O)c(C)c32)c1 [Trametinib] + C[C@]1(O)C[C@@H](c2nc(-c3ccc4ccc(-c5ccccc5)nc4c3)c3c(N)nccn32)C1 [Linsitinib] (partner 1 µM)
In short: (§1)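 After 5 days of treatment, lung cancer cells in 1536-well plates were fixed and stained in a single step (final 0.05% Triton X-100, 1% formaldehyde, 1 ug/ml Hoechst) and their nuclei counted on 4× images. Treatment had been applied by pin tool the day after seeding as one drug alone or as a fixed anchor-drug dose with five library-drug doses (not always all listed) in √10 steps. Relative viability is the nuclei count of treated wells divided by that of vehicle wells, and values are medians of duplicate plates.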

[1] = compound: CN1C=C(C2=CC=CC=C21)/C=C\3/C4=C(C=CC=N4)NC3=O + N=C(N)NC(=N)NCCc1ccccc1 [Phenformin] (partner 250 µM)
In short: as §1

[2] = compound: CN1C=C(C2=CC=CC=C21)/C=C\3/C4=C(C=CC=N4)NC3=O + CS(=O)(=O)CCNCc1ccc(-c2ccc3ncnc(Nc4ccc(OCc5cccc(F)c5)c(Cl)c4)c3c2)o1 [Lapatinib] (partner 2 µM)
In short: as §1

Trametinib + Luminespib = compound: CC(=O)Nc1cccc(-n2c(=O)n(C3CC3)c(=O)c3c(Nc4ccc(I)cc4F)n(C)c(=O)c(C)c32)c1 [Trametinib] + CCNC(=O)c1noc(-c2cc(C(C)C)c(O)cc2O)c1-c1ccc(CN2CCOCC2)cc1 [Luminespib] (partner 0.01 µM)
In short: as §1

UMC-11
relative viability (Trametinib + Linsitinib; first compound 0.0025 µM): 1.01
relative viability (Trametinib + Linsitinib; first compound 0.007906 µM): 1.04
relative viability (Trametinib + Linsitinib; first compound 0.025 µM): 0.929
relative viability (Trametinib + Linsitinib; first compound 0.07906 µM): 1.07
relative viability (Trametinib + Linsitinib; first compound 0.25 µM): 0.974
relative viability ([1]; first compound 0.02 µM): 0.299
relative viability ([1]; first compound 0.06325 µM): 0.306
relative viability ([1]; first compound 0.2 µM): 0.265
relative viability ([1]; first compound 0.6325 µM): 0.369
relative viability ([1]; first compound 2 µM): 0.34
relative viability ([2]; first compound 0.02 µM): 0.854
relative viability ([2]; first compound 0.06325 µM): 0.901
relative viability ([2]; first compound 0.2 µM): 0.632
relative viability ([2]; first compound 0.6325 µM): 0.897
relative viability ([2]; first compound 2 µM): 1.33
relative viability (Trametinib + Luminespib; first compound 0.0025 µM): 1.05
relative viability (Trametinib + Luminespib; first compound 0.007906 µM): 1.08
relative viability (Trametinib + Luminespib; first compound 0.025 µM): 0.951
relative viability (Trametinib + Luminespib; first compound 0.07906 µM): 1.04
relative viability (Trametinib + Luminespib; first compound 0.25 µM): 0.945

— the supplement of paper PMC10307832
